According to patent US20250340540A1, “Crystal Forms Of HS378 And Preparation Method Therefor” (priority 2022, published 2025):
Like-named read-outs stand apart in the source and are kept apart here.

Experiments:
[1] = Microscope photographs: crystal habit and particle fluidity; format: physicochemical; conditions: judged from microscope photographs
Excerpt: Microscope photographs of the samples of the crystal form A obtained in Example 1, the crystal form B obtained in Example 5 of the present disclosure, and the crystal forms 1, 2, 4, and 5 obtained in Preparation Example are shown in FIGS. 7-12, respectively.

[2] = format: physicochemical; conditions: for Changes of HPLC purity over 10 days: 10 days vs 0 day; for Stability of crystal form and HPLC data: 10 days
Experimental: The X-ray powder diffraction instrument and test conditions involved in the present disclosure were as follows: X-ray diffraction instrument model MiniFlex600Cu target; operation method: scanning speed 20°/min, scanning step width 0.02°. The liquid phase test conditions involved in the present disclosure were as follows: chromatographic column: Agilent Zorbax SB-18, 150×4.6 mm, 5 μm; mobile phase A: 0.1% phosphoric acid aqueous solution; mobile phase B: acetonitrile; detection wavelength: 205 nm; flow rate: 1.0 ml/min; injection volume: 5 μl; column temperature: […]. The samples of crystal form A obtained in Example 1, the crystal form B obtained in Example 5 of the present disclosure, and the crystal forms 1, 2, 4, and 5 obtained in Preparation Example were placed at 60° C. for 5 days and 10 days, respectively, and subjected to HPLC and XRD detection, respectively.

[3] = human, in vivo; cited from earlier work
[4] = 0 Day, before placing at 60° C.

Structure (SMILES)	Particle fluidity [1]	HPLC purity (%) [2, 4]	HPLC purity (%) ([2]; 60° C., 5 Days)	HPLC purity (%) ([2]; 60° C., 10 Days)	Changes of HPLC purity over 10 days ([2]; 60° C.)	Stability of crystal form and HPLC data [2]	Oral plasma concentration [3]
CC(C)(C)[C@H](NC(=O)C(F)(F)F)C(=O)N1C[C@H]2[C@@H]([C@H]1C(=O)N[C@H](C#N)C[C@@H]1CCNC1=O)C2(C)C [Crystal form 1]	poor fluidity	95.34%	95.34%	95.31%	−0.03	more stable than crystal form 2, crystal form 4 and crystal form 5	–
CC(C)(C)[C@H](NC(=O)C(F)(F)F)C(=O)N1C[C@H]2[C@@H]([C@H]1C(=O)N[C@H](C#N)C[C@@H]1CCNC1=O)C2(C)C [Crystal form 2]	poor fluidity	93.83%	93.71%	93.52%	−0.31	–	–
CC(C)(C)[C@H](NC(=O)C(F)(F)F)C(=O)N1C[C@H]2[C@@H]([C@H]1C(=O)N[C@H](C#N)C[C@@H]1CCNC1=O)C2(C)C [Crystal form 4]	–	93.31%	93.26%	93.14%	−0.17	–	–
CC(C)(C)[C@H](NC(=O)C(F)(F)F)C(=O)N1C[C@H]2[C@@H]([C@H]1C(=O)N[C@H](C#N)C[C@@H]1CCNC1=O)C2(C)C [Crystal form 5]	poor fluidity	91.23%	91.05%	90.79%	−0.44	–	–
CC(C)(C)[C@H](NC(=O)C(F)(F)F)C(=O)N1C[C@H]2[C@@H]([C@H]1C(=O)N[C@H](C#N)C[C@@H]1CCNC1=O)C2(C)C [Crystal form A]	good in particle fluidity	99.86%	99.86%	99.85%	−0.01	more stable than crystal form 2, crystal form 4 and crystal form 5	–
CC(C)(C)[C@H](NC(=O)C(F)(F)F)C(=O)N1C[C@H]2[C@@H]([C@H]1C(=O)N[C@H](C#N)C[C@@H]1CCNC1=O)C2(C)C [Crystal form B]	good in particle fluidity	99.57%	99.56%	99.54%	−0.03	more stable than crystal form 2, crystal form 4 and crystal form 5	–
CC(C)(C)[C@H](NC(=O)C(F)(F)F)C(=O)N1C[C@H]2[C@@H]([C@H]1C(=O)N[C@H](C#N)C[C@@H]1CCNC1=O)C2(C)C [HS378, (1R, 2S, 5S)-N-{(1S)-1-cyano-2-[(3S)-2-oxopyrrolidin-3-yl]-ethyl}-6,6-dimethyl-3-[3-methyl-N-(trifluoroacetyl)-L-valyl]-3-azabicyclo [3.1.0]hexane-2-carboxamide]	–	–	–	–	–	–	exceeding in vitro antiviral cell efficacy
